From PMC8414802, “Hair Cell Generation in Cochlear Culture Models Mediated by Novel γ-Secretase Inhibitors” (Frontiers in Cell and Developmental Biology, 2021)
Like-named read-outs stand apart in the source and are kept apart here.

Assays:
[1] = test system: Atoh1, Pou4f3, Myo7a expression in otic spheres; test: Otic sphere assay, hair cell gene expression; type: cell-based, mouse
Description: The generation of otic spheres followed previously described protocols ([Oshima et al., 2009]) with modifications during differentiation phase to test GSIs. Briefly, OCs were dissociated and single cells were deposited in ultralow-cluster plates (Corning) and expanded in “full otic medium” consisting of DMEM/F12, supplemented with N2, B27 (Thermo Fisher), EGF (20 ng/ml; Chemicon), bFGF (10 ng/ml; Chemicon), IGF-1 (50 ng/ml; Chemicon), and heparan sulfate (50 ng/ml; Sigma-Aldrich). After culturing for 3–4 days at 37°C, spheres were collected, plated in cell culture-treated 96 well-plate and cultured in DMEM/F12, supplemented with N2, B27 with/without GSIs for 7 days after which they were lysed for RNA extraction.
(§1) Cells or tissue were lysed using RLT Lysis Buffer (Qiagen) and high purity RNA was prepared on the MagNA Pure instrument using MagNA Pure 96 Cellular RNA LV Kit (Roche). Reagents from Thermo Fisher were used for cDNA synthesis by reverse transcription using random hexamers. Resulting cDNA was RNAse H treated and amplified by TaqMan GEX mastermix and PCR primers and probes for human ATOH1 (Hs00944192_s1) and TBP (Hs00427620_m1), mouse Tbp (Mm00446971_m1), Atoh1 (Mm00476035_s1), Hes5 (Mm00439311_g1), Pouf4s (Mm04213795_s1), and Myo7a (Mm01274015_m1) on the Applied Biosystems QuantStudio 7 Flex Real-Time PCR System. Normalized to Tbp, relative gene expression fold-change was quantified and compared between experimental and control conditions by ΔΔCt calculation.
CPD3 and CPD8 were further compared for their potency to induce hair cell gene expression in otic sphere assays ([Oshima et al., 2009]). Cells were first expanded in presence of growth factors, and in a second step differentiated by growth factor removal and GSI treatment. […] This indicated a modest advantage of CPD3 in eliciting expression of the early hair cell marker Atoh1, but similar potency on expression of some later markers of HC differentiation, Pou4f3 and Myo7a (Figure 2A). From the results of two screening assays, CPD3 was selected for additional characterization studies based on its lower IC50 to induce Atoh1/ATOH1 expression in the otic spheres and LS174T cells, respectively.

[2] = test system: Notch-dependent expression of ATOH1 in LS174T cells; test: ATOH1 expression induction in LS174T cell line by GSIs (RT-PCR); type: cell-based, human; settings: GSI treatment 72 h, fold-change vs 0.05% DMSO, read-out: IC50 for ATOH1 expression upregulation
Description: The human colon cancer cell line LS174T (CL-188; ATCC) was cultured without antibiotics in 1% FBS/Eagle’s Minimum Essential Medium (MEM; Thermo Fisher) ([Asakura et al., 2018]). […]
as §1
Statistical analysis was performed with GraphPad Prism software (Prism9; GraphPad Software Inc., San Diego, CA, United States). For explant cultures, when the number of explants/replicates was not sufficient to test for Gaussian distribution normal distribution of the data was assumed based on previous experiments ([Perny et al., 2017]; [Erni et al., 2019]). Alternatively, the distribution of the datasets was tested by D’Agostino and Pearson normality test. Unpaired t-tests were used to compare parametric data sets of two groups. Welch’s correction was applied if variances were not equal. For non-parametric data, the Mann–Whitney test was adopted. One-way ANOVA was used to determine the difference in means among multiple groups and multiple comparison correction was tested. Graphs indicate the single data point, the mean values ± standard deviation. IC50s were calculated by non-linear regression of data normalized by percent change from controls to compare multiple experiments. Differences in IC50s from Best fit data were compared by Least Squares (F-test; Extra sum of squares; alpha = 0.05).
To measure the relative potency between different GSIs, a pharmacological assay was initially used to identify the dose ranges effective to induce ATOH1 expression. The cell line LS174T, a human colorectal adenocarcinoma, was used to evaluate Notch-dependent expression of ATOH1 ([Kazanjian et al., 2010]). Two compounds from Eli Lilly, designated LY3056480 (CPD3) and LY3056359 (CPD8) (Figures 1A,B) were compared with the commercially available GSIs LY411575 and DAPT. […] The intermediate potency of CPD3 and 8 was likely to be adequate to achieve levels above the IC50 after dilution into perilymph in the inner ear.

[3] = Inner ear pharmacokinetics after transtympanic administration (perilymph, plasma; LC-MS/MS); type: in vivo, guinea pig; settings: 10% POX, sampled at 0.5, 1 and 6 h post-dosing
Description: Female albino Hartley guinea pigs, 250 g, from Charles River (France), housed in macrolon cages (2/cage; Innocage Rat Static-Innovive, Paris) with filter air, were maintained at 22 ± 2°C on a 12-h light cycle with standard A04C (UAR) diet and water “ad libitum.” Lgr5-GFP mice containing an EGFP-IRES-CreERT2 knock-in allele at the Lgr5 locus were obtained from the Jackson Labs (Stock 008875, C57BL/6J/RccHsd background). Atoh1-nGFP transgenic mice (C57Bl/6J background) were from Jane Johnson ([Lumpkin et al., 2003]). Wistar rats were obtained from Charles River.
γ-secretase inhibitors pharmacokinetic studies tested CPD3, CPD8 (Eli Lilly) or LY411575 (Stemcell Technologies) each formulated at 3.4 mg/ml in the following vehicles, 10% Poloxamer 338 (Sigma), 20% Poloxamer 338, 70% PEG400 (Sigma) or 1% hyaluronic acid (HA-700; Lifecore, Chaska, MN, United States) all prepared with PBS (pH 6.2). A single 70 μl injection of the formulated compound (total dose, 870 μg/kg) was delivered to the middle ear space of isoflurane-anesthetized guinea pigs by transtympanic administration. Perilymph from treated animals (perilymph volumes, >2 μl) was collected at time points up to 48 h post-administration (CILcare, Montpellier, France). Briefly, concentrations of each compound in perilymph and plasma, as well as controls prepared in artificial perilymph, were measured by LC-MS/MS on an AB Sciex, API 4000 mass spectrometer using an Onyx C18 5 μm 50^∗2.0 mm separation column (Oroxcell, Romainville, France).
To verify this, in vivo compound concentrations were measured in perilymph of guinea pigs after intratympanic delivery of GSIs into the middle ear. Initially, four vehicle formulations, with different physical properties, were tested, poloxamer 338 (POX; at 10% or 20%), hyaluronic acid (HA), or polyethylene glycol 400 (PEG). For this comparison only one GSI was prepared in each formulation (CPD3, 3.4 mg/ml) and a single dose was injected into the middle ear. Perilymph and plasma were sampled for 48 h (Figure 1D). […] Next, using only 10% POX as vehicle, inner ear adsorption was compared between CPD3, CPD8, and LY411575 by transtympanic injections (Figure 1D, inset). […] Each compound achieved levels several folds above their respective IC50s. The mean maximal perilymph concentration of CPD3 at 0.5 h post-dosing was 85,489 ng/ml (183 μM), then declined at 1 h to 12,928 ng/ml (27.7 μM), and at 6 h to 12,652 ng/ml (27.1 μM). GSIs in plasma samples were not detected (data not shown).

[4] = test system: hair cell genes Atoh1, Pou4f3, Myo7a in OC explants; test: Hair cell gene expression in organ of Corti explants (RT-PCR); type: cell-based, mouse; settings: 5 μM, 4 days, vs DMSO
Description: OC explants were isolated from postnatal day 2 (P2) Wistar rats, P0-P2 mice (Lgr5-GFP or Atoh1-nGFP mice). Dissection of the cochlea under a stereomicroscope (Nikon SMZ800, Japan) allowed OC separation from stria vascularis and modiolus, and the sensory epithelium was plated with hair cells facing up on Cell-Tak (Corning, United States)-coated transwell-clear inserts (6-well format, 0.4 μm pore, Corning, United States). Dissection medium was exchanged for 1.5 ml full otic medium supplemented with 10% FBS (Invitrogen) and 0.01% Ampicillin (Sigma), added under the insert membrane, maintaining the OC under a thin film of medium during culture at 37°C. 5-ethyl-2′-deoxyuridine (EdU, 5 μM, Life Technologies) was added directly in the medium when indicated.
Concentrations of small molecule GSIs {LY411575, CPD3, CPD8, DAPT (N-[N-(3,5-Difluorophenacetyl)-L-alanyl]-S-phenylglycine t-butyl ester; Sigma)} were prepared in DMSO and are indicated in Figure Legends and Results. DMSO included as Control. Treatment groups were assigned randomly.
as §1
FIGURE 2 GSI-mediated induction of hair cell gene expression and de novo generation of hair cells in the neonatal cochlear sensory epithelium. (A) Gene expression changes of Atoh1, Pou4f3, and Myo7a in response to Notch pathway inhibition by CPD3 (solid lines, triangles) and CPD8 (dashed lines, open square) in otic spheres. Gene expression is reported as fold-change relative to carrier control-treated (DMSO, 0.05%). (n = 9–12). […] (B) Gene expression analysis for the hair cell genes Atoh-1, Myo7a, and Pou4f3. DMSO control n = 13, CPD3 n = 12, LY411575 n = 9, DAPT n = 6 from 2–4 independent experiments. OC explants were cultured for 4 days with/without GSI prior to lysis and analysis. One-way ANOVA with Dunnett’s multiple comparison test, each condition compared to DMSO control. (*p < 0.05, **p < 0.005, ***p < 0.001). (C) Cell counts of Atoh1 positive HCs (OHC left, IHC right) in the mouse cochlear sensory epithelium in the mid-apex region after 7 days in culture with different γ-secretase inhibitors. One-way ANOVA Dunnett’s multiple comparison test, each condition compared to DMSO control. (*p < 0.05; n = 3–5 independent experiments). (D) Quantification of Pou4f3 positive HCs (OHC left, IHC right) in the cochlear sensory epithelium from P2 rats in the apical domain after 8 days in culture with different γ-secretase inhibitors. One-way ANOVA with Dunnett’s multiple comparison test, each condition compared to DMSO control (*p < 0.05, n = 3). Representative immunohistological images of the apical domain after 8 days incubation (inset). scale bar = 20 μm. (E) Quantification of Pou4f3 positive OHCs in the apex, middle and basal domain of organ of Corti explants from rats after 4 days of CPD3 treatment compared to DMSO (*p < 0.05, unpaired t-test) n = 4–6 explants from 2 independent experiments.

**Q.** For C[C@H](NC(=O)CCC(F)(F)F)C(=O)N[C@@H]1C(=O)C=C2N(CCC2(C)C)c2ncccc21 [CPD8], which IC50 ([1]; Mus musculus, 168 h, 7 days differentiation with GSI, read-out: IC50 for Atoh1 upregulation) is on record?
**A.** 303 nM

**Q.** What about the “Induction of Atoh1, Pou4f3 and Myo7a expression” value ([1]; dose-responsive, p < 0.05) of the same compound?
**A.** significantly induced

**Q.** And the IC50 ([2]; Homo sapiens)?
**A.** 62 nM

**Q.** And the Perilymph concentrations quantifiable [3]?
**A.** quantifiable at all time points

**Q.** Which results are given for C[C@H](NC(=O)Cc1cc(F)cc(F)c1)C(=O)N[C@H](C(=O)OC(C)(C)C)c1ccccc1 [DAPT, N-[N-(3,5-Difluorophenacetyl)-L-alanyl]-S-phenylglycine t-butyl ester]?
**A.** IC50 [2]: 1400 nM; Atoh1 expression [4]: 2.36 ± 0.39 fold; Myo7a expression [4]: 1.59 ± 0.21 fold; Pou4f3 expression [4]: 2.14 ± 0.36 fold
